# According to PMC11220795 (Molecular Pharmaceutics, 2024):
# Experiment: Drug solubility in medium-chain triglycerides (MCT, Miglyol 812 N); SORESOS 96-well assay, miniaturized shake-flask or literature
# Conditions: decadic logarithm of molar solubility in MCTs (Miglyol 812 N), 24 h at room temperature; no literature source given
# Protocol: The excipient complies with the quality specifications of the European Pharmacopoeia. The solvents used for the ultra-performance liquid chromatography (UPLC) quantification were of UPLC grade.
# (b) employing a miniaturized version of the shake-flask method in 2 mL glass vials,[33] or (c) collecting data from the literature.[12],[34] Each of the employed assays involved residual solid-state screenings by powder X-ray diffraction to identify potential solid-state changes during solubility screenings.
row,log10 S [M],SMILES
1,-2.34 M,O=C(N[C@@H]1CCCC[C@H]1O)c1cnc(OCC(F)(F)F)c(-c2ccc(Cl)c(Cl)c2)c1 [RO5267683]
2,-3.11 M,CN(C)C(=O)Cc1c(C(=O)O)n(Cc2cccc3ccccc23)c2ccc(F)cc12 [RO5066852]
3,-1.93 M,COc1ccc(N2CCOCC2)c2sc(NC(=O)c3ccc(C(F)(F)F)cc3)nc12 [RO0720004]
4,-2.38 M,CN1C(=O)N(c2c(F)cc(C#Cc3ccccc3)cc2F)C(=O)C[C@]12CCCc1ncccc12 [RO7059466]
5,0.0355 M,CC(C)(C)c1ccc(CN(CCc2cc(F)cc(C(F)(F)F)c2)C(=O)c2cc(C(F)(F)F)cc(Cl)c2F)cc1 [RO5072744]
6,-3.50 M,O=C(OCc1ccc(OC(F)(F)F)cc1)N1C[C@@H]2CN(C(=O)c3ccc4n[nH]nc4c3)C[C@@H]2C1 [RO6897779]
7,-2.47 M,CC1(C)OC2(CCN(C3=NC(=O)C4(Cc5ccccc5C4)O3)CC2)c2cccnc21 [RO6953958]
8,-1.31 M,COC(=O)N1CC[C@@H]2[C@@H]1CCC[C@@]2(O)C#Cc1cccc(C)c1 [RO6805580]
9,-1.29 M,CN(C(=O)c1ccc(C#Cc2cc(F)ccc2F)cn1)C(C)(C)C [RO6806127]
10,-2.04 M,COc1ccc(N2CCOCC2)c2sc(NC(=O)N(C)[C@@H]3C[C@H]4CC[C@@H]3O4)nc12 [RO4651862]
11,-4.19 M,COc1ccc(C)cc1S(=O)(=O)N1CCCc2ccc(C(=O)Nc3ccc(C(=O)O)c(F)c3)cc21 [RO5033672]
12,-3.13 M,Cn1cc(-c2ccc(S(=O)(=O)[C@@H]3C[C@@H](C(=O)NC4(C#N)CC4)N(C(=O)C4(C(F)(F)F)CC4)C3)c(C(F)(F)F)c2)cn1 [RO5459072]
13,-2.76 M,Cn1c(COc2cc(Cl)c(C#N)cc2C(C)(C)C)n[nH]c1=O [RO7189752]
14,-3.23 M,Cn1ncc(C(=O)N2CCOCC2)c1C(=O)Nc1ccn2nc(-c3ccccc3)nc2c1 [RO5545965]
15,-1.68 M,COc1cc(C(=O)O)ccc1NC(=O)[C@@H]1N[C@@H](CC(C)(C)C)[C@](C#N)(c2ccc(Cl)cc2F)[C@H]1c1cccc(Cl)c1F [RO5503781]
16,-1.38 M,Cc1cc(C#Cc2cn(-c3ccc(F)cc3)c(C)n2)ccn1 [RO4582939]
17,-0.16 M,CCc1cc(CCN(Cc2ccc(C(C)(C)C)cc2)C(=O)c2cc(C(F)(F)F)cc(Cl)c2F)ccc1Cl [RO5132822]
18,-1.66 M,CCO[C@H](Cc1ccc2c(ccn2Cc2nc(-c3ccccc3Cl)oc2C)c1)C(=O)O [RO4552952]
19,-2.53 M,Cc1onc(-c2ccc(F)cc2)c1COc1ccc(C(=O)N2CCS(=O)(=O)CC2)cn1 [RO5186582]
20,-4.84 M,COc1ccc(N2CCOCC2)c2sc(NC(=O)N3CC[S+]([O-])CC3)nc12 [RO0712616]
21,-3.00 M,COc1ccc(N2CCOCC2)c2sc(NC(=O)c3ccnc(CN4CCCC4)c3)nc12 [RO0728617]
22,-1.55 M,CC(C)(C)c1ccc(CN(CCc2cccc(C(F)(F)F)c2)C(=O)c2c(F)c(Cl)cc3cc[nH]c23)cc1 [RO4920902]

row,log10 S [M],SMILES
1,-2.99 M,Cc1sc(NC(=O)C2=C(C(=O)O)CCCC2)c(-c2nc(C3CC3)no2)c1C [RO6858805]
2,-4.65 M,COc1ccc(N2CCOCC2)c2sc(NC(=O)N3CCC(CO)CC3)nc12 [RO0725612]
3,-2.52 M,Cc1cc(OCc2ccc(-c3ccc(OC(F)(F)F)cc3)nc2)ccc1OC(C)(C)C(=O)O [RO4883572]
4,-3.08 M,N#Cc1cc(-c2ccc(F)c(F)c2)c2c(c1)cc1n2CCNC1=O [RO6889199]
5,-2.24 M,CC(C)(C(=O)NCC(F)(F)C(F)(F)F)C(=O)N[C@@H]1C(=O)Nc2ccccc2-c2ccccc21 [RO4929097]
6,-2.96 M,Cc1cc(-c2ccc(C(F)(F)F)cc2)cc(-c2cccc(-c3cccc(S(N)(=O)=O)c3)n2)n1 [RO5132673]
7,-1.07 M,CN(C(=O)C(C)(C)c1cc(C(F)(F)F)cc(C(F)(F)F)c1)c1cnc(N2CCOCC2)cc1-c1ccccc1Cl [RO0676789]
8,-2.28 M,Cc1cc(N(C)Cc2sc(-c3ccc(C(F)(F)F)cc3)nc2C)ccc1OCC(=O)O [RO4632615]
9,-2.89 M,Cc1onc(-c2ccc(F)cn2)c1COc1ccc(C(=O)N2CCS(=O)(=O)CC2)cn1 [RO5292065]
10,-1.47 M,CC(C)(C)c1ccc(CN(CCc2ccc(F)c(C(F)(F)F)c2)C(=O)c2c(F)c(Cl)cc3cc[nH]c23)cc1 [RO4920915]
11,-1.90 M,Cc1onc(-c2ccccn2)c1COc1ccc(C(=O)N2CCOCC2)cn1 [RO5234906]
12,-2.03 M,Cc1cc(F)ccc1-c1cc(N2CCS(=O)(=O)CC2)ncc1N(C)C(=O)C(C)(C)c1cc(C(F)(F)F)cc(C(F)(F)F)c1 [RO0728351]
13,-2.24 M,Cc1ccc(-c2noc(C)c2COc2ccc(C(=O)NC3CCOCC3)nn2)cn1 [RO7017773]
14,-1.84 M,COc1ccc(N2CCCCC2)c2sc(NC(=O)c3ccc(F)cc3)nc12 [RO0718883]
15,-2.61 M,COc1ccc(C2CCOCC2)c2sc(NC(=O)N(C)C3CCC(O)CC3)nc12 (centres unmarked) [RO4518423]
16,-2.90 M,Cc1cccc(C#Cc2cn(-c3cnn(C)c(=O)c3)c(C)n2)c1 [RO5372709]
17,-4.05 M,COc1ccc(Cl)cc1S(=O)(=O)N1CCOc2ccc(C(=O)Nc3ccc(C(=O)O)cc3)cc21 [RO5014449]
18,-1.07 M,CN1C(=O)N(c2ccc(C#Cc3ccccc3)cn2)[C@@H]2CCC[C@H]21 [RO6805600]
19,-2.69 M,CN1CCN(c2ccc(C(=O)Nc3n[nH]c4ccc(Cc5cc(F)cc(F)c5)cc34)c(NC3CCOCC3)c2)CC1 [RO7102122]
20,-2.64 M,CC1(C(=O)N2C[C@H](S(=O)(=O)c3ccc(OCC(F)(F)F)cc3C(F)(F)F)C[C@@H]2C(=O)NC2(C#N)CC2)CC1 [RO5444101]
21,-3.39 M,COc1ccc(N2CCOCC2)c2sc(NC(=O)N(C)C3CCC(O)CC3)nc12 (centres unmarked) [RO4403289]

# Further lines, the compound ahead of its results:
row,SMILES,log10 S [M]
1,COc1cc2ncnc(Nc3ccc(F)c(Cl)c3)c2cc1OCCCN1CCOCC1 [gefitinib],-3.09 M
2,CC(C)C(=O)c1c(C(C)C)nn2ccccc12 [ibudilast],0.0143 M
3,Cc1cc(C#N)cc(C)c1Oc1nc(Nc2ccc(C#N)cc2)nc(N)c1Br [etravirine],-3.28 M
4,CC(C)(C)NC(=O)[C@@H]1C[C@@H]2CCCC[C@@H]2CN1C[C@@H](O)[C@H](Cc1ccccc1)NC(=O)[C@H](CC(N)=O)NC(=O)c1ccc2ccccc2n1 [saquinavir],-3.11 M
5,CNC(=O)c1ccc(N2C(=S)N(c3ccc(C#N)c(C(F)(F)F)c3)C(=O)C2(C)C)cc1F [enzalutamide],-2.36 M
6,Cc1cc(-n2c(=O)[nH]c(=O)n(C)c2=O)ccc1Oc1ccc(SC(F)(F)F)cc1 [toltrazuril],-2.35 M
7,CCOC(=O)N1CCC(=C2c3ccc(Cl)cc3CCc3cccnc32)CC1 [loratadine],-1.21 M
8,CN1CC(=O)N2[C@H](c3ccc4c(c3)OCO4)c3[nH]c4ccccc4c3C[C@@H]2C1=O [tadalafil],-2.99 M
9,OC(Cn1cncn1)(Cn1cncn1)c1ccc(F)cc1F [fluconazole],-2.19 M
10,Cc1cc(-c2cccc(C3=Nc4cc(C)c(C(F)(F)F)cc4NC(=O)C3)c2)ccn1 [RO4432717],-2.89 M
11,CO[C@@H](Cc1ccc(OCCc2nc(-c3ccccc3)oc2C)c2ccsc12)C(=O)O [aleglitazar],-2.77 M
12,O=C1Nc2ccc(Cl)cc2[C@@](C#CC2CC2)(C(F)(F)F)O1 [efavirenz],-0.22 M
13,CC(C(=O)O)c1ccc2c(c1)[nH]c1ccc(Cl)cc12 (centres unmarked) [carprofen],-1.29 M
14,C/C(O)=C(\C#N)C(=O)Nc1ccc(C(F)(F)F)cc1 [teriflunomide],-2.30 M
15,CCC1=C(C)CN(C(=O)NCCc2ccc(S(=O)(=O)NC(=O)N[C@H]3CC[C@H](C)CC3)cc2)C1=O [glimepiride],-4.38 M
16,CCOC(=O)C1=C(COCCN)NC(C)=C(C(=O)OC)C1c1ccccc1Cl (centres unmarked) [amlodipine],-1.45 M

row,SMILES,log10 S [M]
1,Cn1c(=O)c2[nH]cnc2n(C)c1=O [theophylline],-2.92 M
2,CCn1c(=O)c2c(nc(/C=C/c3ccc(OC)c(OC)c3)n2C)n(CC)c1=O [istradefylline],-2.46 M
3,CCOC(=O)C1=C(C)NC(C)=C(C(=O)OCC)C1c1ccccc1/C=C/C(=O)OC(C)(C)C [lacidipine],-2.00 M
4,Clc1ccc(COC(Cn2ccnc2)c2ccc(Cl)cc2Cl)c(Cl)c1 (centres unmarked) [miconazole],-0.86 M
5,Cc1c(Cl)cccc1Nc1ccccc1C(=O)O [tolfenamic acid],-1.65 M
6,C#Cc1cccc(Nc2ncnc3cc(OCCOC)c(OCCOC)cc23)c1 [erlotinib],-2.70 M
7,O=C(O)c1ccccc1Nc1cccc(C(F)(F)F)c1 [flufenamic acid],-0.68 M
8,COc1ccc(CCN2CCC(Nc3nc4ccccc4n3Cc3ccc(F)cc3)CC2)cc1 [astemizole],-2.37 M
9,CN(C)CCCN1c2ccccc2Sc2ccc(Cl)cc21 [chlorpromazine],-0.17 M
10,CC(C)C(=O)Nc1ccc([N+](=O)[O-])c(C(F)(F)F)c1 [flutamide],-0.97 M
11,O=C(O)COC(=O)Cc1ccccc1Nc1c(Cl)cccc1Cl [aceclofenac],-1.84 M
12,CC(C)/N=c1\cc2n(-c3ccc(Cl)cc3)c3ccccc3nc-2cc1Nc1ccc(Cl)cc1 [clofazimine],-1.65 M
13,OC(c1cc(C(F)(F)F)nc2c(C(F)(F)F)cccc12)C1CCCCN1 (centres unmarked) [mefloquine],-1.74 M
14,C[C@@H](O[C@H]1OCCN(Cc2n[nH]c(=O)[nH]2)[C@H]1c1ccc(F)cc1)c1cc(C(F)(F)F)cc(C(F)(F)F)c1 [aprepitant],-3.40 M
15,O=C1CCc2cc(OCCCCc3nnnn3C3CCCCC3)ccc2N1 [cilostazol],-3.68 M
